How the values were obtained:
[1] = Mean AUC (0-t) of diclofenac following single oral dosing of 50 mg diclofenac potassium softgel capsule in healthy human; type: ADME, organism-based; set-up: dietary status Fasting, dose 50 mg, dosed compound id 2.46815e+06, dosed compound name Diclofenac potassium, gender Mixed, regimen Single, route oral, study doses 25/50 mg; settings: both, plasma
[2] = (§1) Geometric mean for apparent terminal elimination rate constant of diclofenac following single oral dosing of 50 mg Cataflam tablet in healthy human; type: ADME, organism-based, Plasma; set-up: dietary status Fed, dose 50 mg, dosed compound id 2.46815e+06, dosed compound name Diclofenac potassium, gender Mixed, regimen Single, route oral; settings: in vivo
[3] = clinical; settings: both, human, plasma, po, 50 mg
Description: Mean terminal elimination half-life of diclofenac following single oral dosing of 50 mg diclofenac potassium softgel capsule in healthy human

[4] = (§2) Mean AUC(0-infinity) of diclofenac potassium following oral dosing of PRO-513 50 mg sachet in healthy human; type: ADME, organism-based; set-up: time infinity, dietary status Fasting, dose 50 mg, dosed compound id 2.46815e+06, dosed compound name Diclofenac potassium, gender Mixed, regimen Single, route oral, study doses 50 mg; settings: both, plasma, read-out: AUC(0-infinity)
[5] = (§3) Maximum tmax of diclofenac following single oral dosing of 50 mg Cataflam tablet in healthy human; type: ADME, organism-based, Plasma; set-up: dietary status Fasting, dose 50 mg, dosed compound id 2.46815e+06, dosed compound name Diclofenac potassium, gender Mixed, regimen Single, route oral; settings: in vivo
[6] = Mean AUC (0-t) of diclofenac following single oral dosing of 25 mg diclofenac potassium softgel capsule in healthy human; type: ADME, organism-based; set-up: dietary status Fasting, dose 25 mg, dosed compound id 2.46815e+06, dosed compound name Diclofenac potassium, gender Mixed, regimen Single, route oral, study doses 25/50 mg; settings: both, plasma
[7] = Mean Cmax of diclofenac following single oral dosing of 25 mg diclofenac potassium softgel capsule in healthy human; type: ADME, organism-based; set-up: dietary status Fed, dose 25 mg, dosed compound id 2.46815e+06, dosed compound name Diclofenac potassium, gender Mixed, regimen Single, route oral, study doses 25/50 mg; settings: both, plasma
[8] = Geometric mean for Cmax of diclofenac following single oral dosing of 35 mg Zorvolex capsule in healthy human; type: ADME, organism-based; set-up: dietary status Fed, dose 35 mg, dosed compound id 2.46815e+06, dosed compound name Diclofenac, gender Mixed, regimen Single, route oral; settings: both, plasma
[9] = clinical; settings: both, human, plasma, po, 25 mg
Description: Mean terminal elimination half-life of diclofenac following single oral dosing of 25 mg diclofenac potassium softgel capsule in healthy human

[10] = (§4) Mean Cmax value of diclofenac following single oral dosing of 50 mg Cataflam tablet in healthy human; type: ADME, organism-based; set-up: dietary status Fasting, dose 50 mg, dosed compound id 2.46815e+06, dosed compound name Diclofenac potassium, gender Mixed, regimen Single, route oral; settings: both, plasma
[11] = Mean AUC(0-infinity) of diclofenac following single oral dosing of 50 mg Cataflam in healthy human; type: ADME, organism-based; set-up: time infinity, dietary status Fasting, dose 50 mg, dosed compound id 2.46815e+06, dosed compound name Diclofenac potassium, gender Mixed, regimen Single, route oral, study doses 50 mg; settings: both, plasma, read-out: AUC (0-infinity)
[12] = Mean AUC (0-t) value of diclofenac following single oral dosing of 50 mg Cataflam tablet in healthy human; type: ADME, organism-based; set-up: dietary status Fasting, dose 50 mg, dosed compound id 2.46815e+06, dosed compound name Diclofenac potassium, gender Mixed, regimen Single, route oral; settings: both, plasma
[13] = as §2; type: ADME, organism-based; set-up: time infinity, dietary status Fed, dose 50 mg, dosed compound id 2.46815e+06, dosed compound name Diclofenac potassium, gender Mixed, regimen Single, route oral, study doses 50 mg; settings: both, plasma, read-out: AUC(0-infinity)
[14] = Mean AUC(0-t) of diclofenac potassium following oral dosing of PRO-513 50 mg sachet in healthy human; type: ADME, organism-based; set-up: dietary status Fasting, dose 50 mg, dosed compound id 2.46815e+06, dosed compound name Diclofenac potassium, gender Mixed, regimen Single, route oral, study doses 50 mg; settings: both, plasma
[15] = as §3; type: ADME, organism-based, Plasma; set-up: dietary status Fed, dose 50 mg, dosed compound id 2.46815e+06, dosed compound name Diclofenac potassium, gender Mixed, regimen Single, route oral; settings: in vivo
[16] = Geometric mean for AUC (0-infinity) of diclofenac following single oral dosing of 50 mg Cataflam tablet in healthy human; type: ADME, organism-based; set-up: dietary status Fed, dose 50 mg, dosed compound id 2.46815e+06, dosed compound name Diclofenac potassium, gender Mixed, regimen Single, route oral, time infinity; settings: both, plasma, read-out: AUC (0-infinity)
[17] = Mean maximum Tmax value of diclofenac potassium following oral dosing of PRO-513 50 mg sachet in healthy human; type: ADME, organism-based; set-up: dietary status Fasting, dose 50 mg, dosed compound id 2.46815e+06, dosed compound name Diclofenac potassium, gender Mixed, regimen Single, route oral, study doses 50 mg; settings: both, plasma, read-out: Maximum Tmax
[18] = as §1; type: ADME, organism-based, Plasma; set-up: dietary status Fasting, dose 50 mg, dosed compound id 2.46815e+06, dosed compound name Diclofenac potassium, gender Mixed, regimen Single, route oral; settings: in vivo
[19] = clinical; settings: both, human, plasma, po, 50 mg; remark: listed apart in the source
[20] = Mean Cmax of diclofenac potassium following oral dosing of Cataflam 50 mf tablet in healthy human; type: ADME, organism-based; set-up: dietary status Fasting, dose 50 mg, dosed compound id 2.46815e+06, dosed compound name Diclofenac potassium, gender Mixed, regimen Single, route oral, study doses 50 mg; settings: both, plasma, 50 mg
[21] = Mean AUC (0-t) value of diclofenac following single oral dosing of 18 mg Zorvolex capsule in healthy human; type: ADME, organism-based; set-up: dietary status Fasting, dose 18 mg, dosed compound id 2.46815e+06, dosed compound name Diclofenac, gender Mixed, regimen Single, route oral; settings: both, plasma
[22] = Mean AUC (0-infinity) value of diclofenac following single oral dosing of 35 mg Zorvolex capsule in healthy human; type: ADME, organism-based; set-up: time infinity, dietary status Fed, dose 35 mg, dosed compound id 2.46815e+06, dosed compound name Diclofenac, gender Mixed, regimen Single, route oral; settings: both, plasma, read-out: AUC (0-infinity)
[23] = (§5) Geometric mean for AUC (0-t) of diclofenac following single oral dosing of 35 mg Zorvolex capsule in healthy human; type: ADME, organism-based; set-up: dietary status Fasting, dose 35 mg, dosed compound id 2.46815e+06, dosed compound name Diclofenac, gender Mixed, regimen Single, route oral; settings: both, plasma
[24] = Geometric mean for Cmax of diclofenac following single oral dosing of 18 mg Zorvolex capsule in healthy human; type: ADME, organism-based; set-up: dietary status Fasting, dose 18 mg, dosed compound id 2.46815e+06, dosed compound name Diclofenac, gender Mixed, regimen Single, route oral; settings: both, plasma
[25] = Mean Cmax of diclofenac following single oral dosing of 50 mg Cataflam in healthy human; type: ADME, organism-based; set-up: dietary status Fasting, dose 50 mg, dosed compound id 2.46815e+06, dosed compound name Diclofenac potassium, gender Mixed, regimen Single, route oral, study doses 50 mg; settings: both, plasma
[26] = Mean apparent terminal elimination rate constant value of diclofenac following single oral dosing of 50 mg Cataflam tablet in healthy human; type: ADME, organism-based, Plasma; set-up: dietary status Fed, dose 50 mg, dosed compound id 2.46815e+06, dosed compound name Diclofenac potassium, gender Mixed, regimen Single, route oral; settings: in vivo
[27] = as §4; type: ADME, organism-based; set-up: dietary status Fed, dose 50 mg, dosed compound id 2.46815e+06, dosed compound name Diclofenac potassium, gender Mixed, regimen Single, route oral; settings: both, plasma
[28] = Mean AUC(0-t) of diclofenac following single oral dosing of 25 mg diclofenac potassium soft gelatin capsule in healthy human; type: ADME, organism-based; set-up: dietary status Fasting, dose 25 mg, dosed compound id 2.46815e+06, dosed compound name Diclofenac potassium, gender Mixed, regimen Single, route oral, study doses 25/50 mg; settings: both, plasma
[29] = Mean Tmax of diclofenac following single oral dosing of 50 mg diclofenac potassium softgel capsule in healthy human; type: ADME, organism-based; set-up: dietary status Fasting, dose 50 mg, dosed compound id 2.46815e+06, dosed compound name Diclofenac potassium, gender Mixed, regimen Single, route oral, study doses 25/50 mg; settings: both, plasma
[30] = Mean Kel of diclofenac potassium following oral dosing of PRO-513 50 mg sachet in healthy human; type: ADME, organism-based; set-up: dietary status Fed, dose 50 mg, dosed compound id 2.46815e+06, dosed compound name Diclofenac potassium, gender Mixed, regimen Single, route oral, study doses 50 mg; settings: both, plasma
[31] = as §5; type: ADME, organism-based; set-up: dietary status Fed, dose 35 mg, dosed compound id 2.46815e+06, dosed compound name Diclofenac, gender Mixed, regimen Single, route oral; settings: both, plasma
[32] = clinical; settings: both, human, plasma, po, 35 mg

`O=C(O)Cc1ccccc1Nc1c(Cl)cccc1Cl` [DICLOFENAC] showed an AUC(0-t) [1] of 1520 ng·h/mL, a lambda-z [2] of 0.318 h⁻¹ and a half-life [3] of 64.2 min. The AUC(0-inf) [4] was 1250 ng·h/mL, the “Maximum Tmax” value [5] was 4.48 h and the AUC(0-t) [6] was 691 ng·h/mL. The Cmax [7] was 686 ng/mL, the Cmax [8] was 321 ng/mL and the half-life [9] was 66.6 min. The Cmax [10] was 1190 ng/mL, the AUC(0-inf) [11] was 1140 ng·h/mL and the AUC(0-t) [12] was 1320 ng·h/mL. The AUC(0-inf) [13] was 1080 ng·h/mL, the AUC(0-t) [14] was 1240 ng·h/mL and the “Maximum Tmax” value [15] was 4.53 h. It also gave an AUC(0-inf) [16] of 1180 ng·h/mL, a Tmax [17] of 40.2 min and a lambda-z [18] of 0.318 h⁻¹. For the same compound, the half-life [19] was 110 min, the Cmax [20] was 1160 ng/mL and the AUC(0-t) [21] was 490 ng·h/mL. For the same compound, the AUC(0-inf) [22] was 876 ng·h/mL, the AUC(0-t) [23] was 980 ng·h/mL and the Cmax [24] was 454 ng/mL. For the same compound, the Cmax [25] was 1170 ng/mL, the lambda-z [26] was 0.332 h⁻¹ and the Cmax [27] was 713 ng/mL. For the same compound, the AUC(0-t) [28] was 579 ng·h/mL, the Tmax [29] was 30.6 min and the k el [30] was 0.000108 s⁻¹. For the same compound, the AUC(0-t) [31] was 837 ng·h/mL and the half-life [32] was 135 min.

From ChEMBL document CHEMBL3509421, “FDA drug approval package for diclofenac acid (NDA 22-202 CP, Ref ID: 3374276)”
